Earlier results in patent US10500190B1, “Sublingual or buccal administration of melatonin and/or valerian” (priority 2019, dated 2019).

What was measured:
[1] = not given; remark: listed apart in the source

variation of peak plasma concentrations (oral): over 20 fold | time after administration for the blood plasma concentration of melatonin to reach its peak (oral preparations): more than 30 minutes | solubility in water or other aqueous biological fluids [1]: poorly soluble
SMILES: COc1ccc2[nH]cc(CCNC(C)=O)c2c1 [melatonin, N-acetyl-5-methoxytrypta mine]
